Test results published in US20190142800A1, “SYNERGISTIC ANTIFUNGAL COMPOSITIONS AND METHODS THEREOF” (VYOME THERAPEUTICS LIMITED, priority 2016, published 2019).

Tested on: Trichophyton rubrum (ATCC-28188)
Assay: Checkerboard assay of fatty acid/ester with antifungals on Trichophyton rubrum (ATCC 28188)
Type: cell-based
Set-up: key to FIC index: FIC index = sum of FICs; FIC = agent conc in well / agent MIC
Details: for Agent MIC: agent alone; for MIC: Trichophyton rubrum, ATCC28188, agent alone
Experimental: The synergy is measured by determining the fractional inhibitory concentration (FIC) value of the combination. This experimental set up, called checkerboard method, allows measurement of a desired effect (inhibition of fungal growth in this case) at different combinations of various concentrations of the two agents (antifungal agent and fatty acid/ester). […] No agent is added to the penultimate column on the right and the bottom row. The final column on the right is used for growth control (only inoculum in broth) and sterility control (broth alone, no inoculum). […] FIC value for each agent in a particular well of the checkerboard layout was calculated by dividing the agent concentration in that well by the established MIC value of the agent against the test organism (Hsieh et al., Synergy assessed by checkerboard: A critical Analysis, Diagn. Microbiol. Infect Dis. (1993) 16:343-349). FIC values for both agents in a particular well were calculated in this way followed by determination of the FIC index (sum of the FICs of each drug in the concerned well). […] Agents Chemother. (2010) 54(2): 602-609].
Using the checkerboard layout experimental setup described above (FIG. 1A), various medium-chain fatty acids were tested for their ability to potentiate the activity of a known antifungal agent. Concentrations above and below the MIC of each test agent were tested using serial dilution. The same procedure was expanded to test combinations of various medium-chain fatty acids C-1 to C-14 (such caprylic acid, undecylenic acid and lauric acid) and esters thereof, with antifungal agents from various classes including azoles, allylamines, benzylamines, zinc pyrithione and piroctone olamine against both susceptible and resistant Trichophyton spp. (filamentous fungus) and Candida spp. (yeast).
Potentiation of the activity of antimycotic agents using ester derivatives of medium chain fatty acids was tested in a standard, well accepted in vitro assay system to check for synergy. This experimental set up, called checkerboard method, allows measurement of a desired effect (inhibition of fungal growth in this case) at different combinations of various concentrations of two agents. A chosen medium chain fatty acid (C-1 to C-14) or its ester derivative was tested for its ability to potentiate the activity of a known antifungal agent (various classes) using the checkerboard layout. Various concentrations above and below the MIC of each test agent were tested using serial dilution in Sabouraud dextrose broth. […] FIC value for a drug in a particular well of the checkerboard layout is calculated by dividing the drug concentration in that well by the established MIC value of the drug against the test organism (Hsieh et al., Synergy assessed by checkerboard: A critical Analysis, Diagn. Microbiol. Infect Dis. (1993) 16:343-349). FIC values for both test agents in a particular well are calculated in this way followed by determination of the FIC index (sum of the FICs of each drug in the concerned well).

[1] = Table 2, propylene glycol monocaprylate series
[2] = Table 3, glyceryl monocaprylate series
[3] = agent's MIC in combination antifungal + caprylic acid (partner: other agent of same combination no.)
[4] = agent's MIC in combination antifungal + glyceryl monocaprylate (partner: other agent of same combination no.)
[5] = antifungal in combination with caprylic acid
[6] = antifungal in combination with glyceryl monocaprylate
[7] = antifungal in combination with propylene glycol monocaprylate
[8] = combination antifungal + caprylic acid
[9] = combination antifungal + glyceryl monocaprylate
[10] = agent's MIC in combination antifungal + propylene glycol monocaprylate (partner: other agent of same combination no.)
[11] = antifungal in combination with propylene glycol monolaurate
[12] = antifungal in combination with undecylenic acid
[13] = combination antifungal + propylene glycol monocaprylate

Combination MIC [3] [µg/mL]	Combination MIC [4] [µg/mL]	MIC (Table 1, caprylic acid series) [µg/mL]	MIC [1] [µg/mL]	MIC [2] [µg/mL]	Combination MIC [10] [µg/mL]	SMILES	FIC index [5]	Interaction [5]	FIC index [6]	Interaction [6]	Interaction [7]	FIC [8]	FIC [9]	FIC index [7]	FIC [13]	also measured
2	2					Cc1cc(CC(C)CC(C)(C)C)n(O)c(=O)c1.NCCO (stereo not shown) [Piroctone olamine]	0.75	Synergistic (Combinations that gave FIC indices less than 1 were designated “synergistic”)	0.562	Synergistic (Combinations that gave FIC indices less than 1 were designated “synergistic”)	Synergistic (Combinations that gave FIC indices less than 1 were designated “synergistic”)	0.5	0.5			Agent MIC (Table 1, caprylic acid series): 4 µg/mL; Agent MIC [1]: 2.5 µg/mL; Agent MIC [2]: 4 µg/mL
16	2	64	64	64	0.125	CC[C@H](C)C[C@H](C)CCCCCCCCC(=O)N[C@H]1C[C@@H](O)[C@@H](NCCN)NC(=O)[C@@H]2[C@@H](O)CCN2C(=O)[C@H]([C@H](O)CCN)NC(=O)[C@H]([C@H](O)[C@@H](O)c2ccc(O)cc2)NC(=O)[C@@H]2C[C@@H](O)CN2C(=O)[C@H]([C@@H](C)O)NC1=O [Caspofungin]	0.75	Synergistic (Combinations that gave FIC indices less than 1 were designated “synergistic”)	0.531	Synergistic (Combinations that gave FIC indices less than 1 were designated “synergistic”)	Synergistic (Combinations that gave FIC indices less than 1 were designated “synergistic”)	0.25	0.031	0.252	0.002	MIC (Table 4, undecylenic acid (C11) series): 64 µg/mL; MIC (Table 6, propylene glycol monolaurate series): 64 µg/mL; Combination MIC (agent's MIC in combination antifungal + propylene glycol monolaurate (partner: other agent of same combination no.)): 0.125 µg/mL; Combination MIC (agent's MIC in combination antifungal + undecylenic acid (partner: other agent of same combination no.)): 16 µg/mL; FIC index [11]: 0.502; Interaction [11]: Synergistic (Combinations that gave FIC indices less than 1 were designated “synergistic”); FIC index [12]: 0.5; Interaction [12]: Synergistic (Combinations that gave FIC indices less than 1 were designated “synergistic”); FIC (combination antifungal + propylene glycol monolaurate): 0.002; FIC (combination antifungal + undecylenic acid): 0.25
0.5	0.03	2	2	2	0.06	Cc1cc(C2CCCCC2)n(O)c(=O)c1 [Ciclopirox]	0.75	Synergistic (Combinations that gave FIC indices less than 1 were designated “synergistic”)	0.501	Synergistic (Combinations that gave FIC indices less than 1 were designated “synergistic”)	Synergistic (Combinations that gave FIC indices less than 1 were designated “synergistic”)	0.25	0.015	0.503	0.03	
